Data as given in PubChem BioAssay AID2060892 (Molecular Pharmacology Branch, DTP, NCI, 2025).
Values joined by “and” are separate entries in the source; they are usually repeats but may differ in a detail not shown here. Equal values may be shown once.

Tested on: HOP-62 complex spheroids with HUVEC/MSC, viability
Assay: Anticancer human tumor HOP-62 cell line growth inhibition [RAS];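 further: spheroids exposed to agents for seven days before readout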
Conditions: for viability, T/C: stronger effect = lower value; active means viability on the fitted dose curve at most 10% of control; inactive means the rest
Source text: RAS pathway inhibitors in Combinations in Complex Spheroids
A high-throughput screen of multi-cell type tumor spheroids was designed to identify active combinations of RAS pathway inhibitors and targeted small molecules. Complex spheroids include a stromal component modeled by human endothelial cells (HUVEC) and fibroblasts modeled by human mesenchymal stem cells (MSCs). The concentration ranges selected for each drug and investigational agent were based upon clinically achievable concentrations if the clinical Cmax of the agent was known.
Compounds. The drugs and investigational agents: abemaciclib (NSC768073), cobimetinib (NSC768068), divarasib (GDC6063, NSC841802), docetaxel (NSC628503), GDC-1971 (RLY-1971, NSC841576), gemcitabine (NSC613327), inavolisib (NSC800729), ipatasertib (NSC767898), KB-0742 (NSC834161), MRTX-1133 (NSC836407), osimertinib (NSC779217), RMC-4630 (NSC839698), RMC-6236 (NSC851965), RMC-6291 (NSC852671), Ro-3306 (NSC812927), sapanisertib (NSC764658), SN-38 (NSC673596), staurosporine (NSC755774), SY5609 (NSC837396), and tovorafenib (DAY101, NSC766906), were obtained from the National Cancer Institute (NCI) Developmental Therapeutics Program Chemical Repository. The FDA-approved anticancer drug set is available from the NCI Developmental Therapeutics Program. […] The stock solutions were prepared in dimethyl sulfoxide (DMSO, Sigma-Aldrich, St. Louis, MO, cat. D2650) at 800-fold the tested concentration and stored at -70 degrees C prior to their use. All drugs and investigational agents were tested over a range starting from a high concentration at or near the clinical Cmax and decreasing in half-log increments. If the clinical Cmax for an agent had not been determined, the highest concentration tested was 10 microM.
Cell Culture. All cells were maintained in an incubator at 37 degrees C and 5% CO2 with 95% humidity. The PDC lines were cultured according to standard operating procedures established by the NCI PDMR. All PDCs were thawed and cultured in Matrigel-coated flasks prepared with a working solution of 1X Ham's F-12 nutrient mix, without supplementation (Invitrogen, Waltham, MA, cat. 11765054), 100 U/mL penicillin-streptomycin (Invitrogen, cat. 15140122), and 2.5% Matrigel (Corning Inc., Corning, NY, cat. 354248) for the first three passages. The 362531-283-R-J2-PDC and 782815-120-R-J1-PDC lines were cultured in 6C/Colon 1B media, which includes advanced DMEM/F-12 (Thermo Fisher Scientific, cat. 12634028), 10 mM HEPES (Thermo Fisher Scientific, cat. 15630080), 1X GlutaMAX supplement (Thermo Fisher Scientific, cat. 35050061), 0.1 mg/mL primocin (InvivoGen, San Diego, CA, cat. ant-pm-2), 10% defined fetal bovine serum, heat inactivated (HyClone Laboratories Inc., Logan, UT, cat. SH30070.03HI), 50% L-WRN conditioned media (ATCC, cat. CRL-3276), 1.25 mM N-Acetyl-L-cysteine (Sigma-Aldrich, cat. A9165), 10 mM nicotinamide (Sigma-Aldrich, cat. N0636), 1X B-27 supplement (Thermo Fisher Scientific, cat. 17504044), 1X N-2 supplement (Thermo Fisher Scientific, cat. 17502048), 50 ng/mL human EGF (Thermo Fisher Scientific, cat. PHG0311), and 10 microM Y-27632 dihydrochloride (Tocris Bioscience, cat. 1254). The K12877-001-R-J1-PDC line was cultured in 6I media, which includes all 6C/Colon 1B media plus 10 ng/mL human FGF-10 (PeproTech, cat. 100-26), 1 ng/mL human FGF-2 (PeproTech, cat. 100-18B), 1 µM prostaglandin E2 (Tocris Bioscience, cat. 2296), […] hydrocortisone (Sigma-Aldrich, cat. H4001), and […] bovine insulin (Sigma-Aldrich, cat. I6634). The K86415-001-R-J1-PDC line was cultured in 6D media, which includes all 6C/Colon 1B media components minus the L-WRN conditioned media. The 485176-168-R4-J1-PDC was cultured in PANC media, which includes all 6C/Colon 1B media plus 100 ng/mL human FGF-10 (PeproTech, cat. 100-26), 500 nM SB-431542 (Selleckchem, cat. S1067), and 10 nM gastrin (Tocris Bioscience, cat. 3006). […]

C[C@@H](NC(=O)c1ncnc(N)c1Cl)c1ncc(C(=O)Nc2cc(C(F)(F)F)c(Cl)cn2)s1
> 10 µM: IC50 (curve of compound)
inactive: viability, T/C (compound 0.0316 µM) 102% (2×) and 107% and 101% | viability, T/C (compound 0.1 µM) 98.6% [middle of 4 runs] | viability, T/C (compound 0.316 µM) 105% and 98.1% and 104% (2×) | viability, T/C (compound 1 µM) 104% [middle of 4 runs] | viability, T/C (compound 3.16 µM) 96% [middle of 4 runs]

CC1(C)CCC(Nc2ncc(C(F)(F)F)c(-c3c[nH]c4c(P(C)(C)=O)c(C#N)ccc34)n2)CN1 (stereo not drawn) + CCn1c(-c2cccnc2C(C)OC)c2c3cc(ccc31)N1CCOC(CC(NC(=O)C(C(C)C)N(C)C(=O)C3(F)CCN(C(=O)C#CC(C)(C)N(C)C)CC3)C(=O)N3CCCC(N3)C(=O)OCC(C)(C)C2)C1
> 0.3 µM: IC50 (curve of first compound, second compound 0.000949 µM) | IC50 (curve of first compound, second compound 0.003 µM) | IC50 (curve of first compound, second compound 0.00949 µM)
0.202 µM: IC50 (curve of first compound, second compound 0.03 µM)
0.00299 µM: IC50 (curve of first compound, second compound 0.3 µM)
0.0312 µM: IC50 (curve of first compound, second compound 0.0949 µM)
inactive: viability, T/C (second compound 0.000949 µM, first compound 0.000949 µM) 108% | viability, T/C (second compound 0.000949 µM, first compound 0.003 µM) 94.5% | viability, T/C (second compound 0.000949 µM, first compound 0.00949 µM) 61.2% | viability, T/C (second compound 0.000949 µM, first compound 0.03 µM) 68.8% | viability, T/C (second compound 0.000949 µM, first compound 0.0949 µM) 80.4% | viability, T/C (second compound 0.000949 µM, first compound 0.3 µM) 44.4% | viability, T/C (second compound 0.003 µM, first compound 0.000949 µM) 105% | viability, T/C (second compound 0.003 µM, first compound 0.003 µM) 78.5% | viability, T/C (second compound 0.003 µM, first compound 0.00949 µM) 62.7% | viability, T/C (second compound 0.003 µM, first compound 0.03 µM) 73.5% | viability, T/C (second compound 0.003 µM, first compound 0.0949 µM) 62% | viability, T/C (second compound 0.003 µM, first compound 0.3 µM) 49.6% | viability, T/C (second compound 0.00949 µM, first compound 0.000949 µM) 97.3% | viability, T/C (second compound 0.00949 µM, first compound 0.003 µM) 60.6% | viability, T/C (second compound 0.00949 µM, first compound 0.00949 µM) 65.2% | viability, T/C (second compound 0.00949 µM, first compound 0.03 µM) 66.7% | viability, T/C (second compound 0.00949 µM, first compound 0.0949 µM) 61.6% | viability, T/C (second compound 0.00949 µM, first compound 0.3 µM) 52.5% | viability, T/C (second compound 0.03 µM, first compound 0.000949 µM) 86.8% | viability, T/C (second compound 0.03 µM, first compound 0.003 µM) 72.3% | viability, T/C (second compound 0.03 µM, first compound 0.00949 µM) 58.2% | viability, T/C (second compound 0.03 µM, first compound 0.03 µM) 54.4% | viability, T/C (second compound 0.03 µM, first compound 0.0949 µM) 42.8% | viability, T/C (second compound 0.03 µM, first compound 0.3 µM) 55.6% | viability, T/C (second compound 0.0949 µM, first compound 0.000949 µM) 83.3% | viability, T/C (second compound 0.0949 µM, first compound 0.003 µM) 58.5% | viability, T/C (second compound 0.0949 µM, first compound 0.00949 µM) 59.7% | viability, T/C (second compound 0.0949 µM, first compound 0.03 µM) 55.8% | viability, T/C (second compound 0.0949 µM, first compound 0.0949 µM) 33.1% | viability, T/C (second compound 0.0949 µM, first compound 0.3 µM) 55.1% | viability, T/C (second compound 0.3 µM, first compound 0.000949 µM) 73.3% | viability, T/C (second compound 0.3 µM, first compound 0.003 µM) 49.8% | viability, T/C (second compound 0.3 µM, first compound 0.00949 µM) 46.1% | viability, T/C (second compound 0.3 µM, first compound 0.03 µM) 40.6% | viability, T/C (second compound 0.3 µM, first compound 0.0949 µM) 40.1% | viability, T/C (second compound 0.3 µM, first compound 0.3 µM) 49.2%
